Experimental data from patent US20250282827A1, “LIPIDATED POLYMYXIN ANALOGUES” (priority 2021, published 2025).
≈ marks a conversion by molar mass, not a printed value. Like-named read-outs stand apart in the source and are kept apart here. Positions of bridges follow the written chain, without caps; N, C: chain ends. Non-standard residues stand in square brackets, D forms with d. Residues, ends and D or L forms follow the SMILES beside them. *: point of attachment. CH2CH2OBz(4-tBu) = CC(C)(C)c1ccc(C(=O)OCC*)cc1; Ethyl(2-propionyloxy) = CCC(=O)OCC*; Ethyl(2-OPiv) = CC(C)(C)C(=O)OCC*; Ethyl(2-OBz) = O=C(OCC*)c1ccccc1; Dab = NCC[C@H](N)C(=O)O; X6 = CCC(C)(C)C(=O)OCC*; X2 = O=C(OCC*)C1CCCCC1; X12 = O=C(OCC*)C1CCC1; X7 = CC(C)CCC(=O)OCC*; X8 = O=C(OCC*)C1CCCC1; X11 = O=C(OCC*)C1CC1

Tests used:
[1] = tested on: E. coli ATCC 25922; format: cell-based, Escherichia coli
Text: (§1) All 81 compounds prepared in Examples 2 and 3 underwent screening against a panel of Gram-negative bacterium to assess their ability to inhibit bacterial growth. […] The median value is presented.

[2] = tested on: A. baumannii ATCC 19606; format: cell-based, Acinetobacter baumannii
Text: as §1

[3] = tested on: P. aeruginosa ATCC 27853; format: cell-based, Pseudomonas aeruginosa
Text: as §1

[4] = tested on: K. pneumoniae ATCC 33495; format: cell-based, Klebsiella pneumoniae
Text: as §1

[5] = tested on: K. pneumoniae ATCC 700603; format: cell-based, Klebsiella pneumoniae
Text: as §1

[6] = tested on: K. pneumoniae ATCC MS6671; format: cell-based, Klebsiella pneumoniae
Text: as §1

[7] = tested on: E. coli ATCC MS8345; format: cell-based, Escherichia coli
Text: as §1
Expansion of the polymyxin macrocycle by substituting […]) offered little advantage in antimicrobial activity but was generally well tolerated although for A. baumanni and P. aeruginosa this was detrimental.

[8] = tested on: kidney organoids derived from human induced pluripotent stem cells; test: Nephrotoxicity on kidney organoids, renal tubule deterioration by bright field imaging; format: cell-based; settings: scored after 48 h; note: key: 1 = unaffected; 2 = mild deterioration; 3 = severe deterioration; 4 = complete deterioration
Method: Selected polymyxin analogues were evaluated for cytotoxicity in physiologically relevant human kidney tissue, using kidney organoids derived from human induced pluripotent stem cells (Soo et al. 2018). Monolipidated analogues 29, 31, 33, containing a propyl, decyl or phenyl lipid, dilapidated compounds, 35, 38, 39, containing a propyl, tert-butyl or phenyl, lipid, respectively and the N-capped, di-lipidated (phenyl) 49 were selected.
The control compound polymyxin B and the seven ClipPA analogues were tested by adding a range of concentrations (based on Gallado-Godoy et al. 2016) to the organoids at day 12 of the protocol, shown previously to correspond to optimal maturity of the organoid tissues.
Toxicity was scored after 48 h for signs of renal tubule deterioration visible by bright field imaging (not shown).

[9] = colistin-resistant strain, median of triplicate

Row | Structure (SMILES) | MIC E. coli ATCC 25922 ([1]; median of triplicate) [µg/mL] | MIC A. baumannii ATCC 19606 ([2]; median of triplicate) [µg/mL] | MIC P. aeruginosa ATCC 27853 ([3]; median of triplicate) [µg/mL] | MIC K. pneumoniae ATCC 33495 ([4]; median of triplicate) [µg/mL] | MIC K. pneumoniae ATCC 700603 ([5]; median of triplicate) [µg/mL] | MIC K. pneumoniae ATCC MS6671 ([6]; median of triplicate) [µg/mL] | MIC E. coli ATCC MS8345 [7, 9] [µg/mL] | Score (nephrotoxicity on kidney organoids) ([8]; 100 μM) | Score (nephrotoxicity on kidney organoids) ([8]; 300 μM) | Score (nephrotoxicity on kidney organoids) ([8]; 1 mM) | MIC E. coli ATCC 25922 ([1]; ATCC 25922) [µg/mL] | MIC A. baumannii ATCC 19606 ([2]; ATCC 19606) [µg/mL] | MIC P. aeruginosa ATCC 27853 ([3]; ATCC 27853) [µg/mL] | MIC K. pneumoniae ATCC 33495 ([4]; ATCC 33495) [µg/mL] | MIC K. pneumoniae ATCC 700603 ([5]; ATCC 700603) [µg/mL] | MIC K. pneumoniae ATCC MS6671 ([6]; ATCC MS6671) [µg/mL] | MIC E. coli ATCC MS8345 ([7]; ATCC MS8345) [µg/mL]
1 | CC(C)C[C@@H]1NC(=O)[C@@H](Cc2ccccc2)NC(=O)[C@H](CCN)NC(=O)[C@@H](NC(=O)[C@H](CCN)NC(=O)[C@@H](NC(=O)[C@H](CCN)NC(=O)[C@@H](N)CSCCOC(=O)c2ccccc2)[C@@H](C)O)CCNC(=O)[C@H]([C@@H](C)O)NC(=O)[C@H](CCN)NC(=O)[C@H](CCN)NC1=O [Compound 33] (H-C(Ethyl(2-OBz))[Dab]T[Dab][Dab][Dab][dF]L[Dab][Dab]T; lactam 5-C) | 0.25 (≈ 0.19 µM) | 0.5 (≈ 0.38 µM) | 0.5 (≈ 0.38 µM) | 0.0625 (≈ 0.0475 µM) | 0.25 (≈ 0.19 µM) | >32 | 2 (≈ 1.52 µM) | 1 | 3 | 4 | – | – | – | – | – | – | –
2 | CCC(=O)OCCSC[C@H](N)C(=O)N[C@@H](CCN)C(=O)N[C@H](C(=O)N[C@@H](CCN)C(=O)N[C@H]1CCNC(=O)[C@H]([C@@H](C)O)NC(=O)[C@H](CCN)NC(=O)[C@H](CCN)NC(=O)[C@H](CSCCOC(=O)c2ccccc2)NC(=O)[C@@H](Cc2ccccc2)NC(=O)[C@H](CCN)NC1=O)[C@@H](C)O [Compound 44] (H-C(Ethyl(2-propionyloxy))[Dab]T[Dab][Dab][Dab][dF]C(Ethyl(2-OBz))[Dab][Dab]T; lactam 5-C) | 0.5 (≈ 0.356 µM) | 32 (≈ 22.8 µM) | 16 (≈ 11.4 µM) | 0.5 (≈ 0.356 µM) | 0.5 (≈ 0.356 µM) | >32 | 32 (≈ 22.8 µM) | 1 | 2 | 3 | – | – | – | – | – | – | –
3 | C[C@@H](O)[C@@H]1NC(=O)[C@H](CCN)NC(=O)[C@H](CCN)NC(=O)[C@H](CSCCOC(=O)c2ccccc2)NC(=O)[C@@H](Cc2ccccc2)NC(=O)[C@H](CCN)NC(=O)[C@@H](NC(=O)[C@H](CCN)NC(=O)[C@@H](NC(=O)[C@H](CCN)NC(=O)[C@@H](N)CSCCOC(=O)C(C)(C)C)[C@@H](C)O)CCNC1=O [Compound 46] (H-C(Ethyl(2-OPiv))[Dab]T[Dab][Dab][Dab][dF]C(Ethyl(2-OBz))[Dab][Dab]T; lactam 5-C) | 2 to 4 | 16 (≈ 11.2 µM) | 16 (≈ 11.2 µM) | 2 (≈ 1.4 µM) | 1 to 2 | >32 | – | 1 | 3 | 4 | – | – | – | – | – | – | –
4 | CC(C)CCC(=O)OCCSC[C@@H](N)C(=O)N[C@H](C(=O)N[C@@H](CCN)C(=O)N[C@H]1CCNC(=O)[C@H]([C@@H](C)O)NC(=O)[C@H](CCN)NC(=O)[C@H](CCN)NC(=O)[C@H](CC(C)C)NC(=O)[C@@H](Cc2ccccc2)NC(=O)[C@H](CCN)NC1=O)[C@@H](C)O [Compound 98] (H-[dC](X7)T[Dab][Dab][Dab][dF]L[Dab][Dab]T; lactam 4-C) | – | – | – | – | – | – | – | – | – | – | 0.5 (≈ 0.414 µM) | 2 (≈ 1.65 µM) | 1 (≈ 0.827 µM) | 1 (≈ 0.827 µM) | 1 (≈ 0.827 µM) | >32 | 4 (≈ 3.31 µM)
5 | CCC(C)(C)C(=O)OCCSC[C@@H](N)C(=O)N[C@H](C(=O)N[C@@H](CCN)C(=O)N[C@H]1CCNC(=O)[C@H]([C@@H](C)O)NC(=O)[C@H](CCN)NC(=O)[C@H](CCN)NC(=O)[C@H](CC(C)C)NC(=O)[C@@H](Cc2ccccc2)NC(=O)[C@H](CCN)NC1=O)[C@@H](C)O [Compound 99] (H-[dC](X6)T[Dab][Dab][Dab][dF]L[Dab][Dab]T; lactam 4-C) | – | – | – | – | – | – | – | – | – | – | 2 (≈ 1.65 µM) | 4 (≈ 3.31 µM) | 4 (≈ 3.31 µM) | 2 (≈ 1.65 µM) | 2 (≈ 1.65 µM) | >32 | >32
6 | CC(C)C[C@@H]1NC(=O)[C@@H](Cc2ccccc2)NC(=O)[C@H](CCN)NC(=O)[C@@H](NC(=O)[C@H](CCN)NC(=O)[C@@H](NC(=O)[C@H](N)CSCCOC(=O)C2CC2)[C@@H](C)O)CCNC(=O)[C@H]([C@@H](C)O)NC(=O)[C@H](CCN)NC(=O)[C@H](CCN)NC1=O [Compound 100] (H-[dC](X11)T[Dab][Dab][Dab][dF]L[Dab][Dab]T; lactam 4-C) | – | – | – | – | – | – | – | – | – | – | 4 (≈ 3.39 µM) | 16 (≈ 13.6 µM) | 4 (≈ 3.39 µM) | 2 (≈ 1.7 µM) | 4 (≈ 3.39 µM) | >32 | >32
7 | CC(C)C[C@@H]1NC(=O)[C@@H](Cc2ccccc2)NC(=O)[C@H](CCN)NC(=O)[C@@H](NC(=O)[C@H](CCN)NC(=O)[C@@H](NC(=O)[C@H](N)CSCCOC(=O)C2CCC2)[C@@H](C)O)CCNC(=O)[C@H]([C@@H](C)O)NC(=O)[C@H](CCN)NC(=O)[C@H](CCN)NC1=O [Compound 101] (H-[dC](X12)T[Dab][Dab][Dab][dF]L[Dab][Dab]T; lactam 4-C) | – | – | – | – | – | – | – | – | – | – | 1 (≈ 0.839 µM) | 4 (≈ 3.35 µM) | 2 (≈ 1.68 µM) | 1 (≈ 0.839 µM) | 2 (≈ 1.68 µM) | >32 | >32
8 | CC(C)C[C@@H]1NC(=O)[C@@H](Cc2ccccc2)NC(=O)[C@H](CCN)NC(=O)[C@@H](NC(=O)[C@H](CCN)NC(=O)[C@@H](NC(=O)[C@H](N)CSCCOC(=O)C2CCCC2)[C@@H](C)O)CCNC(=O)[C@H]([C@@H](C)O)NC(=O)[C@H](CCN)NC(=O)[C@H](CCN)NC1=O [Compound 102] (H-[dC](X8)T[Dab][Dab][Dab][dF]L[Dab][Dab]T; lactam 4-C) | – | – | – | – | – | – | – | – | – | – | 1 (≈ 0.829 µM) | 16 (≈ 13.3 µM) | 2 (≈ 1.66 µM) | 1 (≈ 0.829 µM) | 1 (≈ 0.829 µM) | >32 | 16 (≈ 13.3 µM)
9 | CC(C)C[C@@H]1NC(=O)[C@@H](Cc2ccccc2)NC(=O)[C@H](CCN)NC(=O)[C@@H](NC(=O)[C@H](CCN)NC(=O)[C@@H](NC(=O)[C@H](N)CSCCOC(=O)C2CCCCC2)[C@@H](C)O)CCNC(=O)[C@H]([C@@H](C)O)NC(=O)[C@H](CCN)NC(=O)[C@H](CCN)NC1=O [Compound 103] (H-[dC](X2)T[Dab][Dab][Dab][dF]L[Dab][Dab]T; lactam 4-C) | – | – | – | – | – | – | – | – | – | – | 2 (≈ 1.64 µM) | 4 (≈ 3.28 µM) | 2 (≈ 1.64 µM) | 2 (≈ 1.64 µM) | 2 (≈ 1.64 µM) | >32 | 16 (≈ 13.1 µM)
10 | CC(C)C[C@@H]1NC(=O)[C@@H](Cc2ccccc2)NC(=O)[C@H](CCN)NC(=O)[C@@H](NC(=O)[C@H](CCN)NC(=O)[C@@H](NC(=O)[C@H](N)CSCCOC(=O)c2ccc(C(C)(C)C)cc2)[C@@H](C)O)CCNC(=O)[C@H]([C@@H](C)O)NC(=O)[C@H](CCN)NC(=O)[C@H](CCN)NC1=O [Compound 104] (H-[dC](CH2CH2OBz(4-tBu))T[Dab][Dab][Dab][dF]L[Dab][Dab]T; lactam 4-C) | – | – | – | – | – | – | – | – | – | – | 2 (≈ 1.57 µM) | 4 (≈ 3.15 µM) | 2 (≈ 1.57 µM) | 2 (≈ 1.57 µM) | 4 (≈ 3.15 µM) | >32 | 2 (≈ 1.57 µM)
